This note sets out measurements from patent US10344017B2, “Pyrrolcarboxamide derivatives for the inhibition of ERK5” (CANCER RESEARCH TECHNOLOGY LIMITED, priority 2014, dated 2019).

A word on the IC50: it is the concentration at which inhibition is half-maximal.

This assay addresses T1, ERK5 (Homo sapiens, UniProt Q13164).
T1 construct: made in house
The assay is described as follows: ERK5 IMAP assay (fluorescence polarisation). It counts as biochemical. Particulars: average (e.g. geometric mean) where more than one data point; read-out: ERK5 IC50. In general terms: Fluorescence polarisation rises when a labelled molecule tumbles more slowly, as on binding a larger partner.

T1 sequence (Q13164 whole entry): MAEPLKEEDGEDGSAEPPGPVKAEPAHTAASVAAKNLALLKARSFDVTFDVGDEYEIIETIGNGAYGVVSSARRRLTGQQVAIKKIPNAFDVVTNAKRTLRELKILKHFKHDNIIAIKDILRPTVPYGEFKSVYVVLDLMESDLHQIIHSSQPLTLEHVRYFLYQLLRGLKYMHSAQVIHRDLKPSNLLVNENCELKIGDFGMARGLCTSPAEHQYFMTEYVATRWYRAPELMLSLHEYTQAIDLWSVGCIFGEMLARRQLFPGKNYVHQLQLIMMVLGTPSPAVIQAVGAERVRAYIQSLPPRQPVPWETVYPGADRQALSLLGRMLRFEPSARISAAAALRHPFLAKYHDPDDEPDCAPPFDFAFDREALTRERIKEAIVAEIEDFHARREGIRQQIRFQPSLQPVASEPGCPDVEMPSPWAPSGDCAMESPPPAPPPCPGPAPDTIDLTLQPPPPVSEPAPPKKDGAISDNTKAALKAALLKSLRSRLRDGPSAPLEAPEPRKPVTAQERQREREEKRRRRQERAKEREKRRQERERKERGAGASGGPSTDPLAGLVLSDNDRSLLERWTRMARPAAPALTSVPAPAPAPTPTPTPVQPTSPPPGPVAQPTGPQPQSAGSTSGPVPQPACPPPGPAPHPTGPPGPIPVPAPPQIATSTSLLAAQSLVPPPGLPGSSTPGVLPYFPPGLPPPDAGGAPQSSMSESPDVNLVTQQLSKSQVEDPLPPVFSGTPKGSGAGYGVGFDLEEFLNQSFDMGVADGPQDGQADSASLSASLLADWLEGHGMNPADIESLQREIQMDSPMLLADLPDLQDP

Regarding `CCc1cccc(F)c1C(=O)c1c[nH]c(C(=O)Nc2cccnc2)c1` [Example 199, 4-(2-Ethyl-6-fluorobenzoyl)-N-(pyridin-3-yl)-1H-pyrrole-2-carboxamide], the IC50 came out at 12700 nM.
With `C=C(C)c1ccc(F)c(C(=O)c2c[nH]c(C(=O)Nc3cccnc3)c2)c1F` [Example 168, 4-(2,6-Difluoro-3-(prop-1-en-2-yl)benzoyl)-N-(pyridin-3-yl)-1H-pyrrole-2-carboxamide] the figure was 2450 nM; with `Cc1ccc(Cl)c(C(=O)c2c[nH]c(C(=O)Nc3cncnc3)c2)c1F` [Example 179, 4-(6-Chloro-2-fluoro-3-methylbenzoyl)-N-(pyrimidin-5-yl)-1H-pyrrole-2-carboxamide], 263 nM.
As to `Cc1ccc(F)c(C(=O)c2c[nH]c(C(=O)NC3CCNCC3)c2)c1F` [Example 219, 4-(2,6-Difluoro-3-methylbenzoyl)-N-(piperidin-4-yl)-1H-pyrrole-2-carboxamide], the IC50 was found to be 628 nM.
With `CCc1ncccc1NC(=O)c1cc(C(=O)c2c(Cl)ccc(Cl)c2F)c[nH]1` [Example 82, 4-(3,6-Dichloro-2-fluorobenzoyl)-N-(2-ethylpyridin-3-yl)-1H-pyrrole-2-carboxamide] the figure was 1050 nM.
The same measure for `Cc1ccc(Cl)c(C(=O)c2c[nH]c(C(=O)NC3CCN(C)CC3)c2)c1F` [Example 180, 4-(6-Chloro-2-fluoro-3-methylbenzoyl)-N-(1-methylpiperidin-4-yl)-1H-pyrrole-2-carboxamide]: 490 nM; for `COc1ccc(Cl)c(C(=O)c2c[nH]c(C(=O)Nc3ccc(CC4CCNCC4)nc3)c2)c1F` [Example 117, 4-(6-Chloro-2-fluoro-3-methoxybenzoyl)-N-(6-(piperidin-4-ylmethyl)pyridin-3-yl)-1H-pyrrole-2-carboxamide]: 9.2 nM.
Turning to `O=C(Nc1ccnnc1)c1cc(C(=O)c2c(F)cccc2Br)c[nH]1` [Example 139, 4-(2-Bromo-6-fluorobenzoyl)-N-(pyridazin-4-yl)-1H-pyrrole-2-carboxamide], the half-inhibitory concentration (IC50) amounted to 818 nM.
With `C=Cc1ccc(F)c(C(=O)c2c[nH]c(C(=O)Nc3cncnc3)c2)c1F` [Example 166, 4-(2,6-Difluoro-3-vinylbenzoyl)-N-(pyrimidin-5-yl)-1H-pyrrole-2-carboxamide] the figure was 1370 nM; with `C=Cc1ccc(F)c(C(=O)c2c[nH]c(C(=O)NC3CCN(C)CC3)c2)c1F` [Ex 167], 643 nM; with `O=C(Nc1ccnc(N2CCOCC2)c1)c1cc(C(=O)c2c(Cl)ccc(Cl)c2F)c[nH]1` [Example 38, 4-(3,6-Dichloro-2-fluorobenzoyl)-N-(2-morpholinopyridin-4-yl)-1H-pyrrole-2-carboxamide], 343 nM.
Consider `O=C(Nc1cc[nH]c(=O)n1)c1cc(C(=O)c2c(F)cccc2Br)c[nH]1` [Example 147, 4-(2-Bromo-6-fluorobenzoyl)-N-(2-oxo-1,2-dihydropyrimidin-4-yl)-1H-pyrrole-2-carboxamide], for which the IC50 was found to be 34200 nM.
The same measure for `COc1ccc(Cl)c(C(=O)c2c[nH]c(C(=O)Nc3cnn(C)c3)c2)c1F` [Example 62, 4-(6-Chloro-2-fluoro-3-methoxybenzoyl)-N-(1-methyl-1H-pyrazol-4-yl)-1H-pyrrole-2-carboxamide]: 84.3 nM; for `O=C(Nc1cccnc1)c1cc(C(=O)c2c(Cl)ccc(OC3COC3)c2F)c[nH]1` [Example 272, 4-(6-Chloro-2-fluoro-3-(oxetan-3-yloxy)beruoyl)-N-(pyridin-3-yl)-1H-pyrrole-2-carboxamide]: 73 nM.
On to `CCN1CCC(NC(=O)c2cc(C(=O)c3c(F)cccc3Cl)c[nH]2)CC1` [Example 5, 4-(2-Chloro-6-fluorobenzoyl)-N-(1-ethylpiperidin-4-yl)-1H-pyrrole-2-carboxamide], for which the 50% inhibitory concentration (IC50) came to 437 nM.
With `CCOc1ncccc1NC(=O)c1cc(C(=O)c2c(Cl)ccc(Cl)c2F)c[nH]1` [Example 85, 4-(3,6-Dichloro-2-fluorobenzoyl)-N-(2-ethoxypyridin-3-yl)-1H-pyrrole-2-carboxamide] the figure was 6050 nM.
The same measure for `Cn1cc(NC(=O)c2cc(C(=O)c3c(Cl)ccc(OC4COC4)c3F)c[nH]2)cn1` [Example 273, 4-(6-Chloro-2-fluoro-3-(oxetan-3-yloxy)benzoyl)-N-(1-methyl-1H-pyrazol-4-yl)-1H-pyrrole-2-carboxamide]: 58.3 nM; for `COc1ccc(Cl)c(C(=O)c2c[nH]c(C(=O)Nc3cnn(C4CCN(CC(F)(F)F)CC4)c3)c2)c1F` [Example 64, 4-(6-Chloro-2-fluoro-3-methoxybenzoyl)-N-(1-(1-(2,2,2-trifluoroethyl)piperidin-4-yl)-1H-pyrazol-4-yl)-1H-pyrrole-2-carboxamide]: 2990 nM.
With `CN1CCC(NC(=O)c2cc(C(=O)c3c(Cl)ccc(F)c3F)c[nH]2)CC1` [Example 223, 4-(6-Chloro-2,3-difluorobenzoyl)-N-(1-methylpiperidin-4-yl)-1H-pyrrole-2-carboxamide] the figure was 200 nM; with `CCc1ccc(F)c(C(=O)c2c[nH]c(C(=O)NC3CCN(C)CC3)c2)c1F` [Example 164, 4-(3-Ethyl-2,6-difluorobenzoyl)-N-(1-methylpiperidin-4-yl)-1H-pyrrole-2-carboxamide], 610 nM; with `CN1CCC(NC(=O)c2cc(C(=O)c3cc(Cl)ccc3F)c[nH]2)CC1` [Example 231, 4-(5-Chloro-2-fluorobenzoyl)-N-(1-methylpiperidin-4-yl)-1H-pyrrole-2-carboxamide], 1940 nM.
With `O=C(Nc1ccncn1)c1cc(C(=O)c2c(F)cccc2Cl)c[nH]1` [Example 132, 4-(2-Chloro-6-fluorobenzoyl)-N-(pyrimidin-4-yl)-1H-pyrrole-2-carboxamide], the half-inhibitory concentration (IC50) amounted to 1150 nM.
The same measure for `CCc1ccncc1NC(=O)c1cc(C(=O)c2c(F)cccc2Cl)c[nH]1` [Example 88, 4-(2-Chloro-6-fluorobenzoyl)-N-(4-ethylpyridin-3-yl)-1H-pyrrole-2-carboxamide]: 2140 nM; for `O=C(Nc1ccc(OC2COC2)nc1)c1cc(C(=O)c2c(Cl)ccc(Cl)c2F)c[nH]1` [Example 279, 4-(3,6-Dichloro-2-fluorobenzoyl)-N-(6-(oxetan-3-yloxy)pyridin-3-yl)-1H-pyrrole-2-carboxamide]: 874 nM.
On to `CCc1cccc(F)c1C(=O)c1c[nH]c(C(=O)NC2CCNCC2)c1` [Example 200, 4-(2-Ethyl-6-fluorobenzoyl)-N-(piperidin-4-yl)-1H-pyrrole-2-carboxamide], for which the 50% inhibitory concentration (IC50) turned out to be 4980 nM.
Take `CC(C)N1CCC(NC(=O)c2cc(C(=O)c3c(F)cccc3Cl)c[nH]2)CC1` [Example 1, 4-(2-Chloro-6-fluorobenzoyl)-N-(1-isopropylpiperidin-4-yl)-1H-pyrrole-2-carboxamide]: the IC50 was 657 nM.
With `CS(=O)(=O)N1CCC(NC(=O)c2cc(C(=O)c3c(F)cccc3Cl)c[nH]2)CC1` [Example 8, 4-(2-Chloro-6-fluorobenzoyl)-N-(1-(methylsulfonyl)piperidin-4-yl)-1H-pyrrole-2-carboxamide] the figure was 298 nM; with `O=C(Nc1ccc2cn[nH]c2c1)c1cc(C(=O)c2c(F)cccc2Br)c[nH]1` [Example 157, 4-(2-Bromo-6-fluorobenzoyl)-N-(1H-indazol-6-yl)-1H-pyrrole-2-carboxamide], 7160 nM; with `COc1ccc(Cl)c(C(=O)c2c[nH]c(C(=O)Nc3cnc(CN4CCOCC4)nc3)c2)c1F` [Example 243, 4-(6-Chloro-2-fluoro-3-methoxybenzoyl)-N-(2-(morpholinomethyl)pyrimidin-5-yl)-1H-pyrrole-2-carboxomide], 129 nM.
The same measure for `CN(c1ncc(NC(=O)c2cc(C(=O)c3c(Cl)ccc(Cl)c3F)c[nH]2)cn1)C1CCNCC1` [Example 106, 4-(3,6-Dichloro-2-fluorobenzoyl)-N-(2-(methyl(piperidin-4-yl)amino)pyrimidin-5-yl)-1H-pyrrole-2-carboxamide]: 20 nM; for `O=C(Nc1cnn(CCO)c1)c1cc(C(=O)c2c(Cl)ccc(Cl)c2F)c[nH]1` [Example 235, 4-(3,6-Dichloro-2-fluorobenzo)-N-(1-(2-hydroxyethyl)-1H-pyrazol-4-yl)-1H-pyrrole-2-carboxamide]: 61.2 nM.
The same measure for `O=C(Nc1cnn(Cc2ccccn2)c1)c1cc(C(=O)c2c(Cl)ccc(Cl)c2F)c[nH]1` [Example 48, 4-(3,6-Dichloro-2-fluorobenzoyl)-N-(1-(pyridin-2-ylmethyl)-1H-pyrazol-4-yl)-1H-pyrrole-2-carboxamide]: 80.7 nM; for `Cc1ccc(F)c(C(=O)c2c[nH]c(C(=O)Nc3cccnc3)c2)c1` [Example 232, 4-(2-Fluoro-5-methylbenzoyl)-N-(pyridin-3-yl)-1H-pyrrole-2-carboxamide]: 4050 nM.
Regarding `Cc1ccc(F)c(C(=O)c2c[nH]c(C(=O)NC3CCN(C)CC3)c2)c1F` [Example 220, 4-(2,6-Difluoro-3-methylbenzoyl)-N-(1-methylpiperidin-4-yl)-1H-pyrrole-2-carboxamide], the half-inhibitory concentration (IC50) stood at 399 nM.
`O=C(NC1CCNCC1)c1cc(C(=O)c2cc(Cl)ccc2F)c[nH]1` [Example 230, 4-(5-Chloro-2-fluorobenzoyl)-N-(piperidin-4-yl)-1H-pyrrole-2-carboxamide]: the half-maximal inhibitory concentration (IC50) came out at 1660 nM.
On to `O=C(Nc1cnn(C2CCOC2)c1)c1cc(C(=O)c2c(Cl)ccc(Cl)c2F)c[nH]1` (centres unmarked) [Example 240, 4-(3,6-Dichloro-2-fluorobenzoyl)-N-(1-(tetrahydrofuran-3-yl)-1H-pyrazol-4-yl)-1H-pyrrole-2-carboxamide], for which the 50% inhibitory concentration (IC50) came to 127 nM.
Consider `O=C(Nc1cccnc1N1CCCC1)c1cc(C(=O)c2c(Cl)ccc(Cl)c2F)c[nH]1` [Example 86, 4-(3,6-Dichloro-2-fluorobenzoyl)-N-(2-(pyrrolidin-1-yl)pyridin-3-yl)-1H-pyrrole-2-carboxamide], for which the IC50 is 12200 nM.
As for `O=C(Nc1cnc(N2CCC(O)CC2)nc1)c1cc(C(=O)c2c(F)cccc2Cl)c[nH]1` [Example 28, 4-(2-Chloro-6-fluorobenzoyl)-N-(2-(4-hydroxypiperidin-1-yl)pyrimidin-5-yl)-1H-pyrrole-2-carboxamide], the IC50 turned out to be 2230 nM.
